Measured values: paper PMC9266822, “Thermal Shift Assay for Small GTPase Stability Screening: Evaluation and Suitability” (International Journal of Molecular Sciences, 2022)
“Also recorded” adds a separate entry of the source.

Key:
KRAS G12C [1] = target: T1, KRAS G12C (Homo sapiens, UniProt P01116, G12C); assay: Competitive Protein-Probe thermal stability assay with DARPin K13; format: binding; settings: 50 nM KRAS G12C, 50 nM K13; 2 µM inhibitor
T1 construct: GG-Hs.KRAS4b (2-188) G12C; His6-MBP (N, cleaved yes); made in house; host or cells: E. coli

KRAS G12C [2] = test system: T2, KRAS G12C; assay: Protein-Probe thermal stability assay; format: binding, human; settings: for concentration of saturated stabilization / ΔTm: 50 nM KRAS G12C; for ΔTm: 5 µM inhibitor, saturated
T2 construct: GG-Hs.KRAS4b (2-188) G12C; His6-MBP (N, cleaved yes); made in house; host or cells: E. coli
Description: All Protein-Probe assays were performed using a sample volume of 8 µL and a two-step assay protocol. […] Assays were performed in a sample buffer containing 10 mM HEPES (pH 7.5), 0.001% Triton X-100 and 20 mM NaCl and the buffer was supplemented with 0–10 mM MgCl2, 0–1 mM CaCl2, or 0–1 mM EDTA, depending on the assay. In all thermal stability assays, samples were preincubated at RT for 10 min (nucleotides) or 30 min (inhibitors) prior to thermal measurements. […] At each temperature, samples were incubated for 3 min before the Protein-Probe solution was added, and the TRL-signals at 620 nm were monitored at RT. […]
(§1) All inhibitor assays were performed with a buffer containing 1 mM MgCl2. […]

KRAS G12C [3] = test system: T2, KRAS G12C; assay: SYPRO Orange / ANS thermal ramping assay; format: binding, human; settings: 10 µM KRAS G12C, 20 µM inhibitor, double transitions
Description: (§2) SYPRO Orange and ANS assays were performed using a one-step protocol, where the samples (8 µL) and SYPRO Orange/ANS solution (12 µL) were combined prior to the first heating step. The samples were incubated for 3 min at each temperature, followed by fluorescence signal measurement. SYPRO Orange was used at 5× (stock 5000×) and ANS at 10 µM final concentration.

KRAS WT [4] = test system: T3, KRAS WT; assay: SYPRO Orange thermal ramping assay; format: binding, human; settings: 10 µM KRAS WT, 20 µM compound
T3 construct: His6-MBP (N, cleaved yes); made in house; host or cells: E. coli
Description: as §2

KRAS G12C [5] = test system: T2, KRAS G12C; assay: Protein-Probe thermal stability assay; format: binding, human; settings: KRAS G12C 50 nM; 1 µM ARS-1620; 0 mM MgCl2
KRAS WT [6] = target: T4, KRAS WT (Homo sapiens, UniProt P01116); assay: QRET nucleotide exchange assay, SOScat induced; format: biochemical; settings: 15 nM KRAS
T4 construct: GG-Hs.KRAS4b (2-188), GG-Hs.KRAS4b (2-188) G12C; His6-MBP (N, cleaved yes); made in house; host or cells: E. coli

Gαi = assay: Protein-Probe thermal stability assay; format: binding; settings: 100 µM GDP or GTP
Description: (§3) All Protein-Probe assays were performed using a sample volume of 8 µL and a two-step assay protocol. Detection was performed at room temperature (RT) by adding 65 µL Protein-Probe solution: 4 µM HIDC (1,1,3,3,3′,3′-hexamethylindodicarbocyanine iodide) and 1–1.5 nM Eu^3+-labeled peptide probe (NH2-[…]). Assays were performed in a sample buffer containing 10 mM HEPES (pH 7.5), 0.001% Triton X-100 and 20 mM NaCl and the buffer was supplemented with 0–10 mM MgCl2, 0–1 mM CaCl2, or 0–1 mM EDTA, depending on the assay. In all thermal stability assays, samples were preincubated at RT for 10 min (nucleotides) or 30 min (inhibitors) prior to thermal measurements. Depending on the studied protein, thermal ramping was performed up to 95 °C, using 5 °C intervals. At each temperature, samples were incubated for 3 min before the Protein-Probe solution was added, and the TRL-signals at 620 nm were monitored at RT.
(§4) In addition, KRAS WT was monitored in a sample buffer supplemented with 0–10 mM MgCl2 or 0–1 mM CaCl2.
(§5) KRAS G13D (50 nM) was monitored in the presence of 0–900 nM GDP, and KRAS WT, G13D, G12D, and Q61R (50 nM) were monitored with 10 and/or 100 µM GDP, GTP, and ATP in buffer supplemented with 1 mM MgCl2. KRAS WT (50 nM) was also monitored with 10 µM GDP in a buffer without MgCl2 or supplemented with 0–1 mM CaCl2 or 1 mM EDTA. HRAS (2 µM), NRAS (2 µM), RhoA (2 µM), and Gαi (50 nM) were monitored with 100 µM GDP, GTP, or ATP in buffers with or without 1 mM MgCl2 and 1 mM EDTA. In addition, melting curves for KRAS WT (50 nM) were measured with GTP analogs GTPγS, GMPPNP, and GMPPCP (0–300 µM), and GMP (0–1000 µM) in the presence of 1 mM MgCl2.

RhoA = test system: T5, RhoA; assay: Protein-Probe thermal stability assay; format: binding; settings: Table S1; RhoA 1 µM; additive concentrations not given (100 µM GDP/GTP)
T5 construct: and RhoA (1-182) were gen-; His6-MBP (N, cleaved yes); made in house; host or cells: E. coli
Description: as §3, §4
as §5, with “HRAS (2 µM), NRAS (2 µM), RhoA (2 µM), and Gαi (50 nM) were monitored with 100 µM GDP, GTP, or ATP in buffers with or without 1 mM MgCl2 and 1 mM EDTA.” left out

KRAS G13D [7] = test system: T6, KRAS G13D; assay: SYPRO Orange thermal ramping assay; format: binding, human; settings: KRAS G13D 3 µM, 1 mM MgCl2, GDP 1 µM, ATP 1 mM
T6 construct: GG-Hs.KRAS4b (2-188) G13D; His6-MBP (N, cleaved yes); made in house; host or cells: E. coli
Description: as §2
Thermal stability curves for KRAS WT, G12C, G13D, and Q61R (0–30 µM) were monitored both with SYPRO Orange and ANS in an assay buffer with or without 1 mM MgCl2. In addition, HRAS, NRAS, KRAS V14I, RhoA, and Gαi were studied at 10 µM concentration. KRAS G13D (3 µM) was assayed with SYPRO Orange in thermal ramping in combination with 0–1000 µM GDP, 1000 µM GTP, and 1000 µM ATP in a buffer supplemented with 1 mM MgCl2. Additionally, 10 µM HRAS, NRAS, KRAS V14I, Ac-KRAS iMet-KRAS, RhoA, and Gαi were studied without additional nucleotides or with 10 or 100 µM GDP/GTP in an assay buffer supplemented with 1 mM MgCl2 or 1 mM EDTA.

KRAS G12D = assay: Protein-Probe thermal stability assay; format: binding, human; settings: Table S1; KRAS G12D 50 nM; MgCl2 1 mM, GDP 10 mM as headed
Description: as §3, §4, §5
All inhibitor assays were performed with a buffer containing 1 mM MgCl2.
(§6) Assays were performed using three DARPins alone or in combination with small molecular inhibitors. […] The thermal curves were monitored after an additional 30 min incubation at RT.

KRAS G13D [8] = test system: T6, KRAS G13D; assay: Protein-Probe thermal stability assay; format: binding, human; settings: KRAS G13D 50 nM
Description: as §3, §4, §5, §6

KRAS Q61R = test system: T7, KRAS Q61R; assay: Protein-Probe thermal stability assay; format: binding, human; settings: KRAS Q61R 50 nM
T7 construct: GG-Hs.KRAS4b (2-188) Q61R; His6-MBP (N, cleaved yes); made in house; host or cells: E. coli
Description: as §3, §4, §5, §6

KRAS WT [9] = test system: T3, KRAS WT; assay: Protein-Probe thermal stability assay; format: binding, human
Description: as §3, §4
as §5, with “KRAS G13D (50 nM) was monitored in the presence of 0–900 nM GDP, and KRAS WT, G13D, G12D, and Q61R (50 nM) were monitored with 10 and/or 100 µM GDP, GTP, and ATP in buffer supplemented with 1 mM MgCl2.” left out
as §1

[10] = Table S1, EDTA 0.5 mM, MgCl2 1 mM, GDP 10 mM, GTP 10 µM as headed

Structure (SMILES): C=CC(=O)N1CC(N2CCN(C(=O)CNc3cc(C4(C)CC4)c(Cl)cc3O)CC2)C1 [ARS-853]
- thermal stability increase in the presence of K13 (KRAS G12C [1]): no thermal stability increase
- concentration of saturated stabilization (KRAS G12C [2]): 5 µM
- ΔTm (KRAS G12C [2]): 16 °C
- maximal thermal stabilization (KRAS G12C [3]): ~13 °C
- effect on thermal stability (KRAS WT [4]): Neither compound altered

Structure (SMILES): C=CC(=O)N1CCN(c2ncnc3c(F)c(-c4c(O)cccc4F)c(Cl)cc23)CC1 [ARS-1620]
- thermal stabilization (KRAS G12C [5]): diminished the thermal stability effect; also recorded: required Mg^2+ to stabilize
- thermal stability increase in the presence of K13 (KRAS G12C [1]): no thermal stability increase
- concentration of saturated stabilization (KRAS G12C [2]): 5 µM
- ΔTm (KRAS G12C [2]): 18 °C
- thermal stabilization (KRAS G12C [2]; KRAS G12C 50 nM, 1 µM ARS-1620, 1 mM MgCl2): thermally stabilizes
- maximal thermal stabilization (KRAS G12C [3]): ~13 °C
- effect on thermal stability (KRAS WT [4]): Neither compound altered

Structure (SMILES): Nc1nc2c(ncn2[C@@H]2O[C@H](COP(=O)(O)OP(=O)(O)O)[C@@H](O)[C@H]2O)c(=O)[nH]1 [GDP, guanosine-5’-diphosphate]
- KRAS binding (KRAS WT [6]; Fig. 3A legend, SOScat 10 nM): < 15 nM
- EC50 (KRAS WT [6]; nucleotide titration, SOScat 5 nM (Table S2), 10 nM (Fig. 3 legend)): 0.0119 ± 0.0007 µM
- max ΔTm (Gαi; with Mg2+): ≤ 1.0 °C
- max ΔTm (Gαi; without Mg2+): ≤ 3.3 °C
- Thermal Stability (°C) (RhoA): 70.1 ± 1.1 °C
- stabilization (KRAS G13D [7]): no KRAS G13D stabilization
- Thermal Stability (°C) (KRAS G12D): 67.6 ± 0.4 °C
- shift of Tm (KRAS G13D [8]; 10 µM GDP): over 10 °C
- GDP concentration at which stabilization saturates (KRAS G13D [8]; GDP titration 0–0.9 mM): approximately 300 µM
- Thermal Stability (°C) (KRAS G13D [8]; [10]): 60.5 ± 0.2 °C
- stabilization by GDP (KRAS Q61R; 10 µM GDP): not stabilized; also recorded: no change in Tm
- Thermal Stability (°C) (KRAS Q61R; [10]): 71.3 ± 0.9 °C
- Tm of nucleotide-preloaded KRAS (KRAS WT [9]; KRAS 50 nM preloaded with the nucleotide, unit not given, in °C (unit assumed)): 60.4 ± 0.2
- concentration at which KRAS was stabilized (KRAS WT [9]; KRAS WT 50 nM, 1 mM MgCl2): 10000 nM
- ΔTm (KRAS WT [9]; KRAS WT 50 nM, 10 µM GDP in 1 mM MgCl2): 7.6 °C
- ΔTm (KRAS WT [9]; KRAS WT 50 nM, 10 µM GDP in the presence of 1 mM EDTA): 11.3 °C
- Tm (KRAS WT [9]; KRAS WT 50 nM, 10 µM GDP with 0.1 mM Ca2+, unit not given, in °C (unit assumed)): 61.2 ± 0.9
- Tm (KRAS WT [9]; KRAS WT 50 nM, 10 µM GDP with 1 mM Ca2+, unit not given, in °C (unit assumed)): 61.8 ± 0.6
- Thermal Stability (°C) (KRAS WT [9]; Table S1, KRAS WT 50 nM, additive as headed: EDTA 0.5 mM, MgCl2 1 mM, GDP 10 mM, GTP 10 µM, GTPγS 10 µM, GMP-PNP 300 µM, GMP-PCP 300 µM, GMP 1 mM): 68.0 ± 0.5 °C
